Activity calls are given as the source filed them. Cut-off read from the data, not from the text of the source, for most assays here: actives have a measured Kd and inactives only a lower limit.
Columns and labels:
[1] = target: T1, Serine/threonine-protein kinase A-Raf (Homo sapiens, UniProt P10398)
T1 sequence (P10398 whole entry): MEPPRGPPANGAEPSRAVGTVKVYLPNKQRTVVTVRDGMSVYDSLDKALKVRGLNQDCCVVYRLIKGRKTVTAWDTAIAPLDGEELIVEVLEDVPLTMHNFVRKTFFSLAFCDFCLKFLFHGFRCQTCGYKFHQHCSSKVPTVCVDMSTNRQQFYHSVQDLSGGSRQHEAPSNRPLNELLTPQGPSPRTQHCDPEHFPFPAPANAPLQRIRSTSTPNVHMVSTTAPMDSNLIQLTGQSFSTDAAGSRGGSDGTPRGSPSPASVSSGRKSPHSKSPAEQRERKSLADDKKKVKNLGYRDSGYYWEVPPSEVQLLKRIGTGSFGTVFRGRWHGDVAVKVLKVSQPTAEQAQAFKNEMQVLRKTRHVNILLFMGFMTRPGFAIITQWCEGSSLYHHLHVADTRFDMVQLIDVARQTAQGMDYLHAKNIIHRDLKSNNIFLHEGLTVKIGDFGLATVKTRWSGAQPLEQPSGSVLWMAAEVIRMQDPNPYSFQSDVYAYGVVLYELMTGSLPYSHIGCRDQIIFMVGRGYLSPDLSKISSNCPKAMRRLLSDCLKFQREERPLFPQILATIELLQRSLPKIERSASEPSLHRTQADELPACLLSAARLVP

[2] = target: Calcium/calmodulin-dependent protein kinase type II subunit gamma (Homo sapiens, UniProt Q13555)
Ephrin type-A receptor 4 = Ephrin type-A receptor 4 (Homo sapiens, UniProt P54764)
Sequence of Ephrin type-A receptor 4 (P54764 whole entry): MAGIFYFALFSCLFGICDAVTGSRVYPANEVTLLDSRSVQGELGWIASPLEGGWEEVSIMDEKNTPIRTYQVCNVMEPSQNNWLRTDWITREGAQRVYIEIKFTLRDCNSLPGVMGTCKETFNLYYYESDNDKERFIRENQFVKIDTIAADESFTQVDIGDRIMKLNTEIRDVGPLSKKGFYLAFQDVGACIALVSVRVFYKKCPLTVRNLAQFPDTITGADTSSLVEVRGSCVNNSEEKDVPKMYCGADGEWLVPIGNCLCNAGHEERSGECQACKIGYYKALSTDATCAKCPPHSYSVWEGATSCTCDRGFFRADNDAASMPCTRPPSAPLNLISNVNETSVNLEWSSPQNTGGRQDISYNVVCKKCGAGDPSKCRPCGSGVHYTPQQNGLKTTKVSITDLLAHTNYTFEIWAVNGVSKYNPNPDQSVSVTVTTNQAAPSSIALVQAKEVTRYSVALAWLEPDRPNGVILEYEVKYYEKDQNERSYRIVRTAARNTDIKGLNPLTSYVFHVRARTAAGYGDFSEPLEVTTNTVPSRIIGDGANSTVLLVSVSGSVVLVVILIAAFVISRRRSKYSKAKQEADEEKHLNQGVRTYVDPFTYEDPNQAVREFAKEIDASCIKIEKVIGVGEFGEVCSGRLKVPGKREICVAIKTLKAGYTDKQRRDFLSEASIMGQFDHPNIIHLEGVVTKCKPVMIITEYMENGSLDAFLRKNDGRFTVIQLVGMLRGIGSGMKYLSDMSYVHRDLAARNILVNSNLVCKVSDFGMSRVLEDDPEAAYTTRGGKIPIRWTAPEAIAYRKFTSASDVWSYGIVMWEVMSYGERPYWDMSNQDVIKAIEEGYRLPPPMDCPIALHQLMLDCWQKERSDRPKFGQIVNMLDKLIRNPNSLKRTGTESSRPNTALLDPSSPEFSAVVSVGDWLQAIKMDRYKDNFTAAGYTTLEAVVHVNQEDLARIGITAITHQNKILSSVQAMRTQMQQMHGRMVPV

[3] = target: Tyrosine-protein kinase Fer (Homo sapiens, UniProt P16591)
Sequence of Tyrosine-protein kinase Fer (P16591 whole entry): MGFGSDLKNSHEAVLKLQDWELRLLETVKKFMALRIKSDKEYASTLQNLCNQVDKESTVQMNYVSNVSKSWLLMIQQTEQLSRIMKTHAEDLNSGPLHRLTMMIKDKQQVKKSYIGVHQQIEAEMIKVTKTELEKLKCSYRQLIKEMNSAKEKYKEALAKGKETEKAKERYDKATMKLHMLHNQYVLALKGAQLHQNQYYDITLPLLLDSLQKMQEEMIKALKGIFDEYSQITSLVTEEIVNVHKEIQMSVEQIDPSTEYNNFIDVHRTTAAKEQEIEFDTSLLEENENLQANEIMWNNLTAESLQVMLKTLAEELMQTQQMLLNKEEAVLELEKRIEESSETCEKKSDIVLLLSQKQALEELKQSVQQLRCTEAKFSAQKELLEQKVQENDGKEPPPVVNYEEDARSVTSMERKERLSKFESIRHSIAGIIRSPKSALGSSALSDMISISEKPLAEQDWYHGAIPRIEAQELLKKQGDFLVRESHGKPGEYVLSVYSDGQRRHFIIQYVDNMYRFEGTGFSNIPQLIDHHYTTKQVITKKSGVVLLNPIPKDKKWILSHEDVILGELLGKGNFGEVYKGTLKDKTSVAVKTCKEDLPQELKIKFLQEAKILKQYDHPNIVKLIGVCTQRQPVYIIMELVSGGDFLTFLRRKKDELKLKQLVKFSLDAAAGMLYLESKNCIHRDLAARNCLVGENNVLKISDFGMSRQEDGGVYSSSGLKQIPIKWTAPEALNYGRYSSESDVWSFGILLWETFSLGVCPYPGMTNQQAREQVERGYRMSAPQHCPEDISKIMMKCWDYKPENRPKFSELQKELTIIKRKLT

GTP-binding protein 4 = GTP-binding protein 4 (Homo sapiens, UniProt Q9BZE4)
[4] = target: T2, Interleukin-1 receptor-associated kinase 3 (Homo sapiens, UniProt Q9Y616)
T2 sequence (Q9Y616 whole entry): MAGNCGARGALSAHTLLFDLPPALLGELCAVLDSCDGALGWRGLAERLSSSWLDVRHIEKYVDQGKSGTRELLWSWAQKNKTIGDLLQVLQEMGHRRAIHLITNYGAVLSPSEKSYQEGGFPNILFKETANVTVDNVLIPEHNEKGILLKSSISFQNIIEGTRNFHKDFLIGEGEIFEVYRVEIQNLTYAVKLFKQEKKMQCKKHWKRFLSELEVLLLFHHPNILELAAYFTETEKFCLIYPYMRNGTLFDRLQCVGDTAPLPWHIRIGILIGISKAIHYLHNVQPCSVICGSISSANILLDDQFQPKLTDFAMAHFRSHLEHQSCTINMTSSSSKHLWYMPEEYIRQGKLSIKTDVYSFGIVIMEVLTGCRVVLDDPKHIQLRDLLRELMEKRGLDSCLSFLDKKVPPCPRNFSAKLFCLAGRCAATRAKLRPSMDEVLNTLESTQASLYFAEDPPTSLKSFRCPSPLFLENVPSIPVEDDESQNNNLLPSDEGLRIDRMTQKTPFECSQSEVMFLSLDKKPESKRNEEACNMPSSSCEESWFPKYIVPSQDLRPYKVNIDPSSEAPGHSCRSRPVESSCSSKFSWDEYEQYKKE

[5] = target: T3, Serine/threonine-protein kinase LATS1 (Homo sapiens, UniProt O95835)
T3 sequence (O95835 whole entry): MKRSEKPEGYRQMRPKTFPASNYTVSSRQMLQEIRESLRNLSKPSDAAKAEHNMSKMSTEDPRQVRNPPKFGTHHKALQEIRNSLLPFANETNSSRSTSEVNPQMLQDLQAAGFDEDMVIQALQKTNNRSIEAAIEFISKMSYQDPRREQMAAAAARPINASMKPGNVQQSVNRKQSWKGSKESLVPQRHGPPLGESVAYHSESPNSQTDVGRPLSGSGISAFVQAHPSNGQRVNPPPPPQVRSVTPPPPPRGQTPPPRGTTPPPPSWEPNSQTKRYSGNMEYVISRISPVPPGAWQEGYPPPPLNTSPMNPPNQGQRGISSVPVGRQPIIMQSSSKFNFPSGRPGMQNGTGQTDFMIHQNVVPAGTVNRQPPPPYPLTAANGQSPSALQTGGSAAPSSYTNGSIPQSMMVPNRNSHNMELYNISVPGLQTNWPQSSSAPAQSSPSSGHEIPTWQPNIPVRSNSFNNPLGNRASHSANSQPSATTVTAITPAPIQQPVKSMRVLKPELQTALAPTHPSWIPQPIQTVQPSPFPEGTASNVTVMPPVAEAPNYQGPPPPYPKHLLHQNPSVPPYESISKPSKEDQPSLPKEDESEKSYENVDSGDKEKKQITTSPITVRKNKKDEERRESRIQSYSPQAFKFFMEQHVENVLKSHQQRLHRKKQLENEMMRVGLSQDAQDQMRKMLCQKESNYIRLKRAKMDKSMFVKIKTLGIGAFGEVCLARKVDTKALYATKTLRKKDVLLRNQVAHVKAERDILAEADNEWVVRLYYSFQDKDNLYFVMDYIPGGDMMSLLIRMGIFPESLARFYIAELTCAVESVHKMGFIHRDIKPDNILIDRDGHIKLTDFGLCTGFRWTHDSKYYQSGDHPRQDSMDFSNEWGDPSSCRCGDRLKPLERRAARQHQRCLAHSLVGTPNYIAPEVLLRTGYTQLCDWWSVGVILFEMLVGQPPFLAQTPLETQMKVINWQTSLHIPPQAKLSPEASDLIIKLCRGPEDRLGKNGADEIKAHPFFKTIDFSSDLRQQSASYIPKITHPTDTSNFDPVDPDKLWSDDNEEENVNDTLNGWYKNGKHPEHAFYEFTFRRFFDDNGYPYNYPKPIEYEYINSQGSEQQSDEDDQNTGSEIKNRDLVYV

[6] = target: Mitogen-activated protein kinase 8 (Homo sapiens, UniProt P45983)
Sequence of Mitogen-activated protein kinase 8 (P45983 whole entry): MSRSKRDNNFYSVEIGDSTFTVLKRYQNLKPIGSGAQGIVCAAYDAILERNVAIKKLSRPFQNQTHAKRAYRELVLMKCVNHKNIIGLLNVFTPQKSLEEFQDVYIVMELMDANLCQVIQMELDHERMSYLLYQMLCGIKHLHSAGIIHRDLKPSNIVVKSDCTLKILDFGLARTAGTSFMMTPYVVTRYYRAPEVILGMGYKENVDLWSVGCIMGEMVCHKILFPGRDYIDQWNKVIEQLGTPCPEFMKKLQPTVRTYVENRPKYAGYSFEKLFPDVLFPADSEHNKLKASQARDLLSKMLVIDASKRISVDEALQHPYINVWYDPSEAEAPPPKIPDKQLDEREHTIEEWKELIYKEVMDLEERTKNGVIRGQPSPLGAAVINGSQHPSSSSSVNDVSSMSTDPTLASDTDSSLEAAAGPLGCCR

[7] = target: Serine/threonine-protein kinase pim-1 (Homo sapiens, UniProt P11309)
Sequence of Serine/threonine-protein kinase pim-1 (P11309 whole entry): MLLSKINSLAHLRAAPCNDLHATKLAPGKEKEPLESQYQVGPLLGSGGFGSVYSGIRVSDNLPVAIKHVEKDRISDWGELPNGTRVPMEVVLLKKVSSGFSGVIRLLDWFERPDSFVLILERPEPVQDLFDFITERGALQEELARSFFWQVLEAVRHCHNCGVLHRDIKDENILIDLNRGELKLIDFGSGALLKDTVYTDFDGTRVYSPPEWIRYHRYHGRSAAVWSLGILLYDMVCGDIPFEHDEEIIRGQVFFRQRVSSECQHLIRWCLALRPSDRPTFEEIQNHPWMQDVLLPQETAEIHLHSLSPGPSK

[8] = target: Receptor-interacting serine/threonine-protein kinase 2 (Homo sapiens, UniProt O43353)
Sequence of Receptor-interacting serine/threonine-protein kinase 2 (O43353 whole entry): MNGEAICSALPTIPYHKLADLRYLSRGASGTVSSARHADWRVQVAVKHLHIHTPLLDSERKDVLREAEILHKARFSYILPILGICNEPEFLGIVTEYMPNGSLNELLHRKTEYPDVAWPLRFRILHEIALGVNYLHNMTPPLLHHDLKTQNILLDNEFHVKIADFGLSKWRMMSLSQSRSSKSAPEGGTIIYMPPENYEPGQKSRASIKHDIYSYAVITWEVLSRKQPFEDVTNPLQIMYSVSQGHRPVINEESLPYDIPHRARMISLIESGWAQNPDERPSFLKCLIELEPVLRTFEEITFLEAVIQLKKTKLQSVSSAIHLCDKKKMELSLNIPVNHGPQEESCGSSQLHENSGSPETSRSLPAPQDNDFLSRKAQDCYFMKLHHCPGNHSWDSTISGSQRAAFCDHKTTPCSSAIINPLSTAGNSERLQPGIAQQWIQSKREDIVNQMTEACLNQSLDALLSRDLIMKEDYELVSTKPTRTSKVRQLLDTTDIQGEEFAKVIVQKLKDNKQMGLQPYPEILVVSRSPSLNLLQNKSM

[9] = target: Serine/threonine-protein kinase 10 (Homo sapiens, UniProt O94804)
Sequence of Serine/threonine-protein kinase 10 (O94804 whole entry): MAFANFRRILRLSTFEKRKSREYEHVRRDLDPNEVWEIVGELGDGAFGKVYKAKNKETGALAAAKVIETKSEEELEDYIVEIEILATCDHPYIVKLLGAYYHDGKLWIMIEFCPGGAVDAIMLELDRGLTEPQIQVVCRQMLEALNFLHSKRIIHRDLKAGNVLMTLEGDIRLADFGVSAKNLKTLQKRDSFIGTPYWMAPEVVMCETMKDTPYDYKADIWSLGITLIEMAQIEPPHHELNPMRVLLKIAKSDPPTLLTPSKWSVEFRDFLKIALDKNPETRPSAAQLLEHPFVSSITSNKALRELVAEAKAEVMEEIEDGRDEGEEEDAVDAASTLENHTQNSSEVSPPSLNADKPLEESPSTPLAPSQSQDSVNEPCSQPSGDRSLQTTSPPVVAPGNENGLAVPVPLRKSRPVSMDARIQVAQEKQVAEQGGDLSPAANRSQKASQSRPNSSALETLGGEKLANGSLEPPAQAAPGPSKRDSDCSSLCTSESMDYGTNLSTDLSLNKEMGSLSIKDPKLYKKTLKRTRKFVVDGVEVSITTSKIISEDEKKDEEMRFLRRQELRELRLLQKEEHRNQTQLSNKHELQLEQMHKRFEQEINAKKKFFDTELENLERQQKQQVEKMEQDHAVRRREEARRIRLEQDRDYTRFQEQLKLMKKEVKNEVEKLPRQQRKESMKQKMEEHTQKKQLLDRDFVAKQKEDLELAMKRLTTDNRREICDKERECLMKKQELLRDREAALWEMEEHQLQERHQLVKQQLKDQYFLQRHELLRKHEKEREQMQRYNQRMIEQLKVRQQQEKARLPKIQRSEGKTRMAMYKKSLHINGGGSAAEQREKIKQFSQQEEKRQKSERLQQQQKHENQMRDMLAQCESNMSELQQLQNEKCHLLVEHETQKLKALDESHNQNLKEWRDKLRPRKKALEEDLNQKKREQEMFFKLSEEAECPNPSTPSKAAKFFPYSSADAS

TGF-beta receptor type-2 = TGF-beta receptor type-2 (Homo sapiens, UniProt P37173)
Sequence of TGF-beta receptor type-2 (P37173 whole entry): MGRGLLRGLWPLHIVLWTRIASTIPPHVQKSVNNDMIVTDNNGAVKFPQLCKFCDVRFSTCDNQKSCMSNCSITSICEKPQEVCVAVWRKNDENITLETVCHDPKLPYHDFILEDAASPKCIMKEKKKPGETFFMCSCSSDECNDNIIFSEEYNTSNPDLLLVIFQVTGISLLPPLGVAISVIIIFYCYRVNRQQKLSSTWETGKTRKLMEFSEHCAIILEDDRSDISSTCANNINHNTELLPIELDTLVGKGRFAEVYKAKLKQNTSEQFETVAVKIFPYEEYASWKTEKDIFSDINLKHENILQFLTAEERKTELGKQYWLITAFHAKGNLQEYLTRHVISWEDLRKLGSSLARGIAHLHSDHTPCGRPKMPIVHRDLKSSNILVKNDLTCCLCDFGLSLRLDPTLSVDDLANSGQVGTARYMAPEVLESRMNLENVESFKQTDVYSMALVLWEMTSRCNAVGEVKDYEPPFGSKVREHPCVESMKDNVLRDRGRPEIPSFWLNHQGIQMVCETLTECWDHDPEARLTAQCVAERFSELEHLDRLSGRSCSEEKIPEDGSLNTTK
Note: in the data inactive means no Kd found up to 30 µM.

Kd [1]	Kd [2]	Kd (Ephrin type-A receptor 4)	Kd [3]	Kd (GTP-binding protein 4)	Kd [4]	Kd [5]	Kd [6]	Kd [7]	Kd [8]	Kd [9]	Kd (TGF-beta receptor type-2)	Compound
> 30 µM (inactive)	> 30 µM (inactive)	> 30 µM (inactive)	> 30 µM (inactive)	> 30 µM (inactive)	> 30 µM (inactive)	> 30 µM (inactive)	> 30 µM (inactive)	> 30 µM (inactive)	> 30 µM (inactive)	> 30 µM (inactive)	> 30 µM (inactive)	CC(=O)Nc1cccc(-n2c(=O)n(C3CC3)c(=O)c3c(Nc4ccc(I)cc4F)n(C)c(=O)c(C)c32)c1 [TRAMETINIB]
> 30 µM (inactive)	> 30 µM (inactive)	> 30 µM (inactive)	> 30 µM (inactive)	> 30 µM (inactive)	> 30 µM (inactive)	> 30 µM (inactive)	> 30 µM (inactive)	> 30 µM (inactive)	> 30 µM (inactive)	42.6 µM (active)	> 30 µM (inactive)	CCN1CCN(Cc2ccc(-c3cc4c(N[C@H](C)c5ccccc5)ncnc4[nH]3)cc2)CC1 [AEE-788]
> 30 µM (inactive)	> 30 µM (inactive)	> 30 µM (inactive)	> 30 µM (inactive)	> 30 µM (inactive)	8.67 µM (active)	> 30 µM (inactive)	> 30 µM (inactive)	0.205 µM (active)	> 30 µM (inactive)	0.317 µM (active)	> 30 µM (inactive)	O=C1NC(=O)/C(=C/c2ccc3nccc(-c4ccncc4)c3c2)S1 [GSK-1059615]
> 30 µM (inactive)	> 30 µM (inactive)	> 30 µM (inactive)	> 30 µM (inactive)	> 30 µM (inactive)	> 30 µM (inactive)	> 30 µM (inactive)	> 30 µM (inactive)	> 30 µM (inactive)	> 30 µM (inactive)	> 30 µM (inactive)	> 30 µM (inactive)	O=c1sn(-c2cccc3ccccc23)c(=O)n1Cc1ccccc1 [TIDEGLUSIB]
> 30 µM (inactive)	> 30 µM (inactive)	> 30 µM (inactive)	> 30 µM (inactive)	> 30 µM (inactive)	> 30 µM (inactive)	> 30 µM (inactive)	> 30 µM (inactive)	> 30 µM (inactive)	> 30 µM (inactive)	> 30 µM (inactive)	> 30 µM (inactive)	COc1cc(OC)c(/C=C/S(=O)(=O)Cc2ccc(OC)c(NCC(=O)O)c2)c(OC)c1 [RIGOSERTIB]
> 30 µM (inactive)	> 30 µM (inactive)	> 30 µM (inactive)	> 30 µM (inactive)	> 30 µM (inactive)	> 30 µM (inactive)	> 30 µM (inactive)	> 30 µM (inactive)	> 30 µM (inactive)	> 30 µM (inactive)	> 30 µM (inactive)	> 30 µM (inactive)	C[C@@H](c1ccc2nccn2c1)n1nnc2ncc(-c3cnn(C)c3)nc21 [SAVOLITINIB]
> 30 µM (inactive)	0.247 µM (active)	> 30 µM (inactive)	> 30 µM (inactive)	> 30 µM (inactive)	> 30 µM (inactive)	> 30 µM (inactive)	> 30 µM (inactive)	> 30 µM (inactive)	> 30 µM (inactive)	> 30 µM (inactive)	> 30 µM (inactive)	CN(C)C(=O)c1cc2cnc(Nc3ccc(N4CCNCC4)cn3)nc2n1C1CCCC1 [RIBOCICLIB]
> 30 µM (inactive)	> 30 µM (inactive)	> 30 µM (inactive)	> 30 µM (inactive)	> 30 µM (inactive)	> 30 µM (inactive)	> 30 µM (inactive)	> 30 µM (inactive)	> 30 µM (inactive)	> 30 µM (inactive)	> 30 µM (inactive)	> 30 µM (inactive)	CC[C@H](Nc1ncnc2[nH]cnc12)c1nc2cccc(F)c2c(=O)n1-c1ccccc1 [IDELALISIB]
> 30 µM (inactive)	> 30 µM (inactive)	> 30 µM (inactive)	> 30 µM (inactive)	> 30 µM (inactive)	> 30 µM (inactive)	> 30 µM (inactive)	1.87 µM (active)	> 30 µM (inactive)	0.323 µM (active)	> 30 µM (inactive)	> 30 µM (inactive)	COC(=O)N[C@@H](C)CNc1nccc(-c2cn(C(C)C)nc2-c2cc(Cl)cc(NS(C)(=O)=O)c2F)n1 [ENCORAFENIB]
> 30 µM (inactive)	> 30 µM (inactive)	> 30 µM (inactive)	> 30 µM (inactive)	> 30 µM (inactive)	> 30 µM (inactive)	> 30 µM (inactive)	> 30 µM (inactive)	> 30 µM (inactive)	> 30 µM (inactive)	> 30 µM (inactive)	> 30 µM (inactive)	Cn1cc(-c2ccc3nnc(C(F)(F)c4ccc5ncccc5c4)n3n2)cn1 [JNJ-38877605]
> 30 µM (inactive)	> 30 µM (inactive)	> 30 µM (inactive)	> 30 µM (inactive)	> 30 µM (inactive)	> 30 µM (inactive)	> 30 µM (inactive)	> 30 µM (inactive)	> 30 µM (inactive)	> 30 µM (inactive)	> 30 µM (inactive)	> 30 µM (inactive)	COCCNCc1ccc(-c2cc3nccc(Oc4ccc(NC(=S)NC(=O)Cc5ccc(F)cc5)cc4F)c3s2)nc1 [GLESATINIB]

Compound	Kd [1]	Kd [2]	Kd (Ephrin type-A receptor 4)	Kd [3]	Kd (GTP-binding protein 4)	Kd [4]	Kd [5]	Kd [6]	Kd [7]	Kd [8]	Kd [9]	Kd (TGF-beta receptor type-2)
CN1CC[C@@H](c2c(O)cc(O)c3c(=O)cc(-c4ccccc4Cl)oc23)[C@@H]1CO	> 30 µM (inactive)	1.34 µM (active)	> 30 µM (inactive)	> 30 µM (inactive)	> 30 µM (inactive)	> 30 µM (inactive)	> 30 µM (inactive)	> 30 µM (inactive)	> 30 µM (inactive)	> 30 µM (inactive)	> 30 µM (inactive)	> 30 µM (inactive)

— ChEMBL document CHEMBL3991601, “The target landscape of clinical kinase drugs” (Science, 2017)
